# How the values were obtained:
# [1] = molecular target: T1, nAChR subtype alpha4alpha6beta2 (Homo sapiens, UniProt P17787+P43681+Q15825); details: cited from earlier work
# T1 construct: expressed in transfected cells
# [2] = molecular target: T2, nAChR subtype alpha3beta2 (Homo sapiens, UniProt P17787+P32297); details: cited from earlier work
# T2 construct: expressed in transfected cells
# [3] = molecular target: T3, nAChR subtype alpha3alpha5beta4 (Homo sapiens, UniProt P30926+P32297); details: cited from earlier work
# T3 construct: expressed in transfected cells
# T3 sequence (P32297 32-505): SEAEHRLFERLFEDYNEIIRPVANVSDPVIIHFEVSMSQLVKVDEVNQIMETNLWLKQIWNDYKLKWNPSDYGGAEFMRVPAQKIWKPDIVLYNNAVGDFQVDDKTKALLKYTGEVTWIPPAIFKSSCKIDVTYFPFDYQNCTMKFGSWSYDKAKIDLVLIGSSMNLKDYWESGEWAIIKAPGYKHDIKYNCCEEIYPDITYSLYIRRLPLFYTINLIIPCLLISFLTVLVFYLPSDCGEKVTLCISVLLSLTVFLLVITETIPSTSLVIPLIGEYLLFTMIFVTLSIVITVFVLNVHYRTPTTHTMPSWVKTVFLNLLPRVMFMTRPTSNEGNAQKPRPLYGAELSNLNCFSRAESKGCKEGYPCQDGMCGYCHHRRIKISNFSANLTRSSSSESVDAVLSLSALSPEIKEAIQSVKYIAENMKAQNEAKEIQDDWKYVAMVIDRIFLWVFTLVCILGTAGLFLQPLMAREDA
# T3 sequence (P30532 23-468 partner): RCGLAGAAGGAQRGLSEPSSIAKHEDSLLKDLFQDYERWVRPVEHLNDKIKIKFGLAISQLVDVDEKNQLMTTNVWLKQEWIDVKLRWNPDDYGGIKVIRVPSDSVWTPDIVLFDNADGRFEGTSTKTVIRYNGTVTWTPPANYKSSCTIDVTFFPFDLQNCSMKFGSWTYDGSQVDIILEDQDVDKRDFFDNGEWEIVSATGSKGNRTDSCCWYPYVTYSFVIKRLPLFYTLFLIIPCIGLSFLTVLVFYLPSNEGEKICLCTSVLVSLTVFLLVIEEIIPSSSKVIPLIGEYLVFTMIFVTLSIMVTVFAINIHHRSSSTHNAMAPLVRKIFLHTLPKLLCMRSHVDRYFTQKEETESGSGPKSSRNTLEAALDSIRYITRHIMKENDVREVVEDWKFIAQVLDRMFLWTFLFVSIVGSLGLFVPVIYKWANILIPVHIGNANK
# T3 sequence (P30926 22-498): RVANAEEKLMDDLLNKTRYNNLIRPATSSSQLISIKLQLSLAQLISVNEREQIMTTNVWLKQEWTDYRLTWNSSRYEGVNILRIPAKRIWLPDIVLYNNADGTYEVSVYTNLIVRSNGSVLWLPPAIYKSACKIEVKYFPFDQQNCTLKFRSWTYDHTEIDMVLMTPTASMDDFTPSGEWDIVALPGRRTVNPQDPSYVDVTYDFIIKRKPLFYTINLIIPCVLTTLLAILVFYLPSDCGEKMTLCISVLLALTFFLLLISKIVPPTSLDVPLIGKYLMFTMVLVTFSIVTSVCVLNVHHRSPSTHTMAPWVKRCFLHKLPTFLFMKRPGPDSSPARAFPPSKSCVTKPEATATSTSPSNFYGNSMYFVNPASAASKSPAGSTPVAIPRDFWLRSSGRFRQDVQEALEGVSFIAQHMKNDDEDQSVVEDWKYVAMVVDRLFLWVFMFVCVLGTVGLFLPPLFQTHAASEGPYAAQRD
# [4] = molecular target: T4, nAChR subtype alpha4beta2 (Homo sapiens, UniProt P17787+P43681); details: cited from earlier work
# T4 construct: expressed in transfected cells
# T4 sequence (P43681 29-627 limits assumed): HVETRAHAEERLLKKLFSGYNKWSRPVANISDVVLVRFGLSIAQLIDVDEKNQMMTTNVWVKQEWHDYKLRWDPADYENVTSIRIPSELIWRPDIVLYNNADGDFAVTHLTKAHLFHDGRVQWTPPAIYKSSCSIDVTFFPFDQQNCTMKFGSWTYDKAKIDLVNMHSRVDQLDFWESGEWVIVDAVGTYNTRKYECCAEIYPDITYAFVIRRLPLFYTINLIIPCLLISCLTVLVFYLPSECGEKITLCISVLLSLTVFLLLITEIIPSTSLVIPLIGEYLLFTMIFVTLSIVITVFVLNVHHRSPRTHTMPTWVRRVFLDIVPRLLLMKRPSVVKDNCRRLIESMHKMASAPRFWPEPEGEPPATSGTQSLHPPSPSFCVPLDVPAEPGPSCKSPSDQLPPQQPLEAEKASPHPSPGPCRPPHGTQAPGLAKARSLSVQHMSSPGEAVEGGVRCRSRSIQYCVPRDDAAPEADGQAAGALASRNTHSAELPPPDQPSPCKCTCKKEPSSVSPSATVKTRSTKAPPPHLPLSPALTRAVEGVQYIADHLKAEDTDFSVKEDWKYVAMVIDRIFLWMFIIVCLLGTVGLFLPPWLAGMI
# T4 sequence (P17787 26-502): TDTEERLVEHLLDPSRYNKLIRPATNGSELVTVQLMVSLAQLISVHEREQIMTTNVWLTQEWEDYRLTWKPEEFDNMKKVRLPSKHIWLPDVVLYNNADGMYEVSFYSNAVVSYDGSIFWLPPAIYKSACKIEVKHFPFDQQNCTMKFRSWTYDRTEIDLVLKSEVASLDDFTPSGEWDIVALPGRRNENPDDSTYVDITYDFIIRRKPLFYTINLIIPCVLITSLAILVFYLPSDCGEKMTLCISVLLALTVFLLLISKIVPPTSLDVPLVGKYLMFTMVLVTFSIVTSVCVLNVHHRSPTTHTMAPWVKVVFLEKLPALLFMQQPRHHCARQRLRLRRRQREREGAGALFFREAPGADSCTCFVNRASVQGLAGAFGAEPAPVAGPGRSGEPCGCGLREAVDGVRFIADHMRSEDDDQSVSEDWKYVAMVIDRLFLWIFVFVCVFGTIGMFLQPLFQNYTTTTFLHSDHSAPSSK
# [5] = molecular target: T5, nAChR subtype alpha3beta4 (Homo sapiens, UniProt P30926+P32297); details: cited from earlier work
# T5 construct: expressed in transfected cells
# T5 sequence (P32297 32-505): as the sequence (P32297 32-505) above
# T5 sequence (P30926 22-498): as the sequence (P30926 22-498) above
# nAChR subtype alpha7 [6] = molecular target: T6, nAChR subtype alpha7 (Homo sapiens, UniProt P36544); details: cited from earlier work
# T6 construct: expressed in transfected cells
# T6 sequence (P36544 23-502): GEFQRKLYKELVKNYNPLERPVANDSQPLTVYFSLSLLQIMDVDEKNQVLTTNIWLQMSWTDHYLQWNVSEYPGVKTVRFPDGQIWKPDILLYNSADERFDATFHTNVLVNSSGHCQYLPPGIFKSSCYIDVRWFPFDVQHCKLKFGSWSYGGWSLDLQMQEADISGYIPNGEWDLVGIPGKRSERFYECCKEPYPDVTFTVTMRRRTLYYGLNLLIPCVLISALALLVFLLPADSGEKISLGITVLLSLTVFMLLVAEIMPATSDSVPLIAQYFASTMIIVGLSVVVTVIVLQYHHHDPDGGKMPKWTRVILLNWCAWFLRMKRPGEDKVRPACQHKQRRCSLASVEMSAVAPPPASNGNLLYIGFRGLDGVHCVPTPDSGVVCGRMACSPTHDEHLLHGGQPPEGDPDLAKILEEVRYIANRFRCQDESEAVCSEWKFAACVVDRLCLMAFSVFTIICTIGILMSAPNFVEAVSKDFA
# [7] = molecular target: T7, nAChR subtype alpha6beta2 (Homo sapiens, UniProt P17787+Q15825); details: cited from earlier work
# T7 construct: expressed in transfected cells
# T7 sequence (Q15825 26-494): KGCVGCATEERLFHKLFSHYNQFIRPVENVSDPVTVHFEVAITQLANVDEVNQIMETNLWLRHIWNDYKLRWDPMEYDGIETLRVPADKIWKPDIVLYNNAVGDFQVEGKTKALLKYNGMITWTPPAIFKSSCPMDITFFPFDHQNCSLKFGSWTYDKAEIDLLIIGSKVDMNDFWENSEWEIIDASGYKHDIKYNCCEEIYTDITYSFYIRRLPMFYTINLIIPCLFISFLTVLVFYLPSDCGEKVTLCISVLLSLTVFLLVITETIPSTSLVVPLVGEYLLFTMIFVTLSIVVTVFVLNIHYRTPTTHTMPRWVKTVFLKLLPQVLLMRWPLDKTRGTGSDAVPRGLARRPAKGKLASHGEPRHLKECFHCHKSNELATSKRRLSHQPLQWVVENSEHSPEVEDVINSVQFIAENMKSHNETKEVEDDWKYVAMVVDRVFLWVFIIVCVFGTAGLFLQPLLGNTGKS
# T7 sequence (P17787 26-502): as the sequence (P17787 26-502) above
# nAChR subtype alpha7 [8] = molecular target: T6, nAChR subtype alpha7; experiment: nAChR agonist response (ACh-normalised evoked current), subtype alpha7; assay type: cell-based; details: 300 micromolar concentration
# Excerpt: In general, a nAChR agonist is a full agonist if it evokes a response upon binding to a given receptor that is equal or greater to that of ACh.
# nAChR agonist response, from which receptor activation can be determined can, for example, be generated using an appropriate cell-based assay. Cells designed to express a particular nAChR receptor subtype and generate an electrical current response when bound to and activated by a nAChR agonist can be used to characterize the agonist profile of a compound and the amount of receptor activation thus determined. An example of a generic protocol is described below.
# Cells that express a particular human nAChR subtype are first exposed to ACh. ACh binds and activates the receptor, thereby evoking a current. The concentration of the ACh is chosen to elicit the maximum response of the receptor (e.g., 1280 micromolar ACh). This current is recorded as the ACh response and serves as the 100% nAChR agonist response and to which responses to other nAChR agonists are compared. […]
# The current evoked by exposure to the nAChR agonist is measured and recorded for each nAChR concentration. […] The nAChR agonist response is then calculated as a percentage of the ACh response.
# A nAChR agonist evoking a response equal to or greater than the maximum ACh response determined at the same receptor type is a full agonist. […]
# T1 sequence (P43681 29-627 limits assumed): as the sequence (P43681 29-627 limits assumed) above
# T1 sequence (Q15825 26-494): as the sequence (Q15825 26-494) above
# T1 sequence (P17787 26-502): as the sequence (P17787 26-502) above
# T2 sequence (P32297 32-505): as the sequence (P32297 32-505) above
# T2 sequence (P17787 26-502): as the sequence (P17787 26-502) above
Structure (SMILES),agonist characterisation at nAChR subtype alpha4alpha6beta2 [1],agonist characterisation at nAChR subtype alpha3beta2 [2],agonist characterisation at nAChR subtype alpha3alpha5beta4 [3],agonist characterisation at nAChR subtype alpha4beta2 [4],agonist characterisation at nAChR subtype alpha3beta4 [5],agonist characterisation at nAChR subtype alpha7 (nAChR subtype alpha7 [6]),agonist characterisation at nAChR subtype alpha6beta2 [7],evoked current as % of the maximal ACh-evoked current (nAChR subtype alpha7 [8]) [%]
"C(=C\[C@H]1CCNC1)/c1cncnc1 [Compound 1, (R)-5-((E)-2-pyrrolidin-3-ylvinyl)pyrimidine]",full agonist,partial agonist,full agonist,full agonist,full agonist,weak partial agonist,,
O=C(O)C(O)C(O)C(=O)O.c1cnc2cc3c(cc2n1)C1CNCC3C1 [Varenicline],partial agonist,,partial agonist,partial agonist,partial agonist,full agonist,partial agonist,
"C(=C\[C@H]1CCNC1)/c1cncnc1.O=C(O)CC(O)(CC(=O)O)C(=O)O [compound 1 citrate, (R)-5-((E)-2-pyrrolidin-3-ylvinyl)pyrimidine mono-citrate]",,,,,,,,25

# From patent publication US20250352668A1, “AAV VECTOR ENCODING DIAMINE OXIDASE AND USES THEREOF” (OYSTER POINT PHARMA, INC., priority 2022, published 2025)
